Experimental data taken from publication PMC10329973 (Clinical pharmacology in drug development, 2023).
“And” between values parts separate entries of the source, which are not always exact repeats. Identical values can stand only once.

How the values were obtained:
CYP3A = conditions: ref unpublished data and Ref 35; cited from earlier work
hERG channel = conditions: read-out: IC50, hERG channel; cited from earlier work
[1] = In vitro metabolic stability, hepatic microsomes; assay type: in vitro ADME, mice, rats, dogs, and humans; conditions: mouse, rat, dog, human, liver microsomes
healthy adult volunteers = test: Multiple ascending dose study NP10679-102, safety and tolerability; assay type: in vivo, human; conditions: MAD; for Subjects with at least one TEAE / TEAE, system organ class: Blood and lymphatic system disorders / TEAE, system organ class: Eye disorders / TEAE, system organ class: Gastrointestinal disorders / TEAE, system organ class: General disorders and administration site conditions / TEAE, system organ class: Injury, poisoning and procedural complications / TEAE, system organ class: Investigations / TEAE, system organ class: Musculoskeletal and connective tissue disorders / TEAE, system organ class: Nervous system disorders / TEAE, system organ class: Skin and subcutaneous tissue disorders / TEAE, system organ class: Vascular disorders / TEAE: Anaemia / TEAE: Asthenia / TEAE: Back pain / TEAE: Blood pressure diastolic decreased / TEAE: Contusion / TEAE: Dizziness / TEAE: Dysgeusia / TEAE: Erythema / TEAE: Fatigue / TEAE: Head injury / TEAE: Headache / TEAE: Nausea / TEAE: Pain / TEAE: Peripheral swelling / TEAE: Phlebitis / TEAE: Somnolence / TEAE: Syncope / TEAE: Vision blurred: N = 6

## O=C1CCc2cc(OC[C@H](O)CN3CCN(c4ccc(C(F)(F)F)cc4)CC3)ccc2N1 [NP10679, (R)-6-(2-Hydroxy-3-(4-(4-(trifluoromethyl)phenyl)piperazin-1-yl)propoxy)-3,4-dihydroquinolin-2(1H)-one]
CYP3A
  time-dependent inhibition of CYP3A: does not lead to significant time-dependent inhibition
hERG channel
  IC50: 620 nM
[1]
  half-life: > 120 min
Healthy adult volunteers
  dissociative symptoms or cognitive impairment (CADSS, DSST): no evidence
  serious adverse events (SAEs): No serious adverse events
Healthy adult volunteers; 25 mg IV once daily x 5 days
  Subjects with at least one TEAE: 5 (83.3%) n (%)
  TEAE, system organ class: Blood and lymphatic system disorders: 2 (33.3%) n (%)
  TEAE, system organ class: Eye disorders: 0 n (%)
  TEAE, system organ class: Gastrointestinal disorders: 0 n (%)
  TEAE, system organ class: General disorders and administration site conditions: 1 (16.7%) n (%)
  TEAE, system organ class: Injury, poisoning and procedural complications: 2 (33.3%) n (%)
  TEAE, system organ class: Investigations: 1 (16.7%) n (%)
  TEAE, system organ class: Musculoskeletal and connective tissue disorders: 0 n (%)
  TEAE, system organ class: Nervous system disorders: 3 (50.0%) n (%)
  TEAE, system organ class: Skin and subcutaneous tissue disorders: 0 n (%)
  TEAE, system organ class: Vascular disorders: 0 n (%)
  TEAE: Anaemia: 2 (33.3%) n (%)
  TEAE: Asthenia: 0 n (%)
  TEAE: Back pain: 0 n (%)
  TEAE: Blood pressure diastolic decreased: 1 (16.7%) n (%)
  TEAE: Contusion: 2 (33.3%) n (%)
  TEAE: Dizziness: 0 n (%)
  TEAE: Dysgeusia: 1 (16.7%) n (%)
  TEAE: Erythema: 0 n (%)
  TEAE: Fatigue: 1 (16.7%) n (%)
  TEAE: Head injury: 0 n (%)
  TEAE: Headache: 2 (33.3%) n (%)
  TEAE: Nausea: 0 n (%)
  TEAE: Pain: 0 n (%)
  TEAE: Peripheral swelling: 0 n (%)
  TEAE: Phlebitis: 0 n (%)
  TEAE: Somnolence: 0 n (%)
  TEAE: Syncope: 0 n (%)
  TEAE: Vision blurred: 0 n (%)
Healthy adult volunteers; 50 mg IV once daily x 5 days
  Subjects with at least one TEAE: 3 (50.0%) n (%)
  TEAE, system organ class: Blood and lymphatic system disorders: 0 n (%)
  TEAE, system organ class: Eye disorders: 0 n (%)
  TEAE, system organ class: Gastrointestinal disorders: 0 n (%)
  TEAE, system organ class: General disorders and administration site conditions: 2 (33.3%) n (%)
  TEAE, system organ class: Injury, poisoning and procedural complications: 1 (16.7%) n (%)
  TEAE, system organ class: Investigations: 0 n (%)
  TEAE, system organ class: Musculoskeletal and connective tissue disorders: 0 n (%)
  TEAE, system organ class: Nervous system disorders: 3 (50.0%) n (%)
  TEAE, system organ class: Skin and subcutaneous tissue disorders: 1 (16.7%) n (%)
  TEAE, system organ class: Vascular disorders: 0 n (%)
  TEAE: Anaemia: 0 n (%)
  TEAE: Asthenia: 0 n (%)
  TEAE: Back pain: 0 n (%)
  TEAE: Blood pressure diastolic decreased: 0 n (%)
  TEAE: Contusion: 1 (16.7%) n (%)
  TEAE: Dizziness: 0 n (%)
  TEAE: Dysgeusia: 0 n (%)
  TEAE: Erythema: 1 (16.7%) n (%)
  TEAE: Fatigue: 1 (16.7%) n (%)
  TEAE: Head injury: 0 n (%)
  TEAE: Headache: 0 n (%)
  TEAE: Nausea: 0 n (%)
  TEAE: Pain: 1 (16.7%) n (%)
  TEAE: Peripheral swelling: 1 (16.7%) n (%)
  TEAE: Phlebitis: 0 n (%)
  TEAE: Somnolence: 3 n (%) and 3 (50.0%) n (%)
  TEAE: Syncope: 0 n (%)
  TEAE: Vision blurred: 0 n (%)
Healthy adult volunteers; 100 mg IV once daily x 5 days
  Subjects with at least one TEAE: 6 (100%) n (%)
  TEAE, system organ class: Blood and lymphatic system disorders: 1 (16.7%) n (%)
  TEAE, system organ class: Eye disorders: 0 n (%)
  TEAE, system organ class: Gastrointestinal disorders: 1 (16.7%) n (%)
  TEAE, system organ class: General disorders and administration site conditions: 1 (16.7%) n (%)
  TEAE, system organ class: Injury, poisoning and procedural complications: 1 (16.7%) n (%)
  TEAE, system organ class: Investigations: 0 n (%)
  TEAE, system organ class: Musculoskeletal and connective tissue disorders: 0 n (%)
  TEAE, system organ class: Nervous system disorders: 4 (66.7%) n (%)
  TEAE, system organ class: Skin and subcutaneous tissue disorders: 0 n (%)
  TEAE, system organ class: Vascular disorders: 1 (16.7%) n (%)
  TEAE: Anaemia: 1 (16.7%) n (%)
  TEAE: Asthenia: 1 (16.7%) n (%)
  TEAE: Back pain: 0 n (%)
  TEAE: Blood pressure diastolic decreased: 0 n (%)
  TEAE: Contusion: 0 n (%)
  TEAE: Dizziness: 0 n (%)
  TEAE: Dysgeusia: 0 n (%)
  TEAE: Erythema: 0 n (%)
  TEAE: Fatigue: 0 n (%)
  TEAE: Head injury: 1 (16.7%) n (%)
  TEAE: Headache: 2 (33.3%) n (%)
  TEAE: Nausea: 1 (16.7%) n (%)
  TEAE: Pain: 1 (16.7%) n (%)
  TEAE: Peripheral swelling: 0 n (%)
  TEAE: Phlebitis: 1 (16.7%) n (%)
  TEAE: Somnolence: 3 n (%) and 3 (50.0%) n (%)
  TEAE: Syncope: 1 (16.7%) n (%)
  TEAE: Vision blurred: 0 n (%)
Healthy adult volunteers; 5 days of dosing
  somnolence upon repeat dosing: no signs of increased somnolence
